Test results from patent publication US20210317092A1 (BAYER PHARMA AKTIENGESELLSCHAFT, priority 2016, published 2021).
pIC50: −log10 of the molar value. Where two headings read alike, the source gives them in different places.

Experiments:
[1] = biological target: T1, human Bradykinin B1 receptor (Homo sapiens, UniProt P46663); assay: Calcium flux Assay (FLIPR) with recombinant CHO-K1 cells expressing human Bradykinin B1 receptor, in presence (hB1 IC50) or absence (hB1 free IC50) of 0.1% BSA; type: cell-based
T1 construct: host or cells: CHO-K1
T1 sequence (P46663 1-353): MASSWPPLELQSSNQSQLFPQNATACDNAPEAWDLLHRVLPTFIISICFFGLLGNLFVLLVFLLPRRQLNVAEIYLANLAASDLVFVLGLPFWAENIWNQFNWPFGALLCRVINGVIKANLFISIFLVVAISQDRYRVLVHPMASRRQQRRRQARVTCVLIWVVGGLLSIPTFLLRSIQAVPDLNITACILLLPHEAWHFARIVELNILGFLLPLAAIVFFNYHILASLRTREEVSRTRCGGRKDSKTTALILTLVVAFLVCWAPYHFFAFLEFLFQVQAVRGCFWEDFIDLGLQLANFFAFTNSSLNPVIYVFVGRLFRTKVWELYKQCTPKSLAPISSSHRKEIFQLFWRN

[2] = biological target: T2, native human Bradykinin B1 receptor (Homo sapiens, UniProt P46663); assay: Calcium flux Assay (FLIPR) with human fibroblasts expressing Bradykinin B1 receptor (hB1 IMR-90); type: cell-based; conditions: IMR-90 human fibroblasts expressing native Bradykinin B1 receptor
T2 construct: which express native human Bradykinin B1 receptor after induction with human IL-10; Coriell Institute; host or cells: IMR-90 human foetal lung fibroblasts, cytokine-induced
T2 sequence (P46663 1-353): T1 sequence (P46663 1-353)
Summary of the method: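 IMR-90 human foetal lung fibroblasts induced with 0.35 ng/mL […] for 3 h, Fluo-4/AM-loaded, preincubated with compound (8 concentrations, triplicate) for 30 min at 28 °C, then challenged with Lys-(Des-Arg)-bradykinin at EC90. Ca2+ fluorescence was read at 538 nm; full inhibition set by 20 µM Lys-(Des-Arg-Leu)-bradykinin; IC50 derived.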

[3] = in absence of 0.1% BSA, read-out: hB1 free IC50
[4] = in presence of 0.1% BSA, read-out: hB1 IC50

Compound	pIC50 [1, 3]	pIC50 [2]	pIC50 [1, 4]
CC(C)Oc1ccc(-c2ccc(NC(=O)C3(c4cccc(Cl)c4)CC3)cc2-c2nnn[nH]2)cn1 [Example 148, 1-(3-chlorophenyl)-N-[4-(6-isopropoxy-pyridin-3-yl)-3-(1H-tetrazol-5-yl)phenyl] cyclopropane-carboxamide]	8.71	7.73	7.70
CCOc1ncc(-c2ccc(NC(=O)C3(c4cccc(Cl)c4)CC3)cc2-c2nnn[nH]2)cc1F [Example 163, 1-(3-chlorophenyl)-N-[4-(6-ethoxy-5-fluoropyridin-3-yl)-3-(1H-tetrazol-5-yl)phenyl] cyclopropane-carboxamide]	7.85	7.54	7.55
CN(C)c1ccc(-c2ccc(NC(=O)C3(c4cccc(Cl)c4F)CC3)cc2-c2nnn[nH]2)cn1 [Example 168, 1-(3-chloro-2-fluorophenyl)-N-{4-[6-(dimethylamino)pyridin-3-yl]-3-(1H-tetrazol-5-yl)phenyl} cyclopropane-carboxamide]	7.23	7.56	7.06
O=C(Nc1ccc(-c2ccnc(C(F)(F)F)c2)c(-c2nnn[nH]2)c1)C1(c2ccc(C(F)(F)F)cc2F)CC1 [Example 173, 1-[2-fluoro-4-(trifluoromethyl)phenyl]-N-{3-(1H-tetrazol-5-yl)-4-[2-(trifluoromethyl)pyridin-4-yl]phenyl} cyclopropane-carboxamide]	7.06	7.03	–
O=C(Nc1ccc(-c2ccnc(C(F)(F)F)c2)c(-c2nnn[nH]2)c1)C1(c2ccc(Cl)cc2F)CC1 [Example 175, 1-(4-chloro-2-fluorophenyl)-N-{3-(1H-tetrazol-5-yl)-4-[2-(trifluoromethyl)pyridin-4-yl]phenyl} cyclopropane-carboxamide]	6.67	6.16	–
CCc1cc(-c2ccc(NC(=O)C3(c4cccc(Cl)c4)CC3)cc2-c2nnn[nH]2)ccn1 [Example 181, 1-(3-chlorophenyl)-N-[4-(2-ethylpyridin-4-yl)-3-(1H-tetrazol-5-yl)phenyl] cyclopropane-carboxamide]	7.68	8.14	7.83
O=C(Nc1ccc(-c2ccc(C(F)(F)F)nc2)c(-c2nnn[nH]2)c1)C1(c2ccc(C(F)(F)F)cc2F)CC1 [Example 191, 1-[2-fluoro-4-(trifluoromethyl)phenyl]-N-{3-(1H-tetrazol-5-yl)-4-[6-(trifluoromethyl)pyridin-3-yl]phenyl} cyclopropane-carboxamide]	7.93	7.69	–
O=C(Nc1ccc(-c2ccc(C(F)(F)F)nc2)c(-c2nnn[nH]2)c1)C1(c2ccc(F)c(F)c2)CC1 [Example 193, 1-(3,4-difluorophenyl)-N-{3-(1H-tetrazol-5-yl)-4-[6-(trifluoromethyl)pyridin-3-yl]phenyl} cyclopropane-carboxamide]	7.02	7.09	–
O=C(Nc1ccc(-c2cnc(C(F)(F)F)nc2)c(-c2nnn[nH]2)c1)C1(c2cccc(Cl)c2)CC1 [Example 196, 1-(3-chlorophenyl)-N-{3-(1H-tetrazol-5-yl)-4-[2-(trifluoromethyl)pyrimidin-5-yl]phenyl} cyclopropane-carboxamide]	6.12	5.84	5.86
O=C(Nc1ccc(-c2ccc(C(F)F)nc2)c(-c2nnn[nH]2)c1)C1(c2ccc(F)c(F)c2)CC1 [Example 207, N-{4-[6-(difluoromethyl)pyridin-3-yl]-3-(1H-tetrazol-5-yl)phenyl}-1-(3,4-difluorophenyl) cyclopropane-carboxamide]	7.65	7.83	–
Cc1cc(-c2ccc(NC(=O)C3(c4cccc(Cl)c4F)CC3)cc2-c2nnn[nH]2)ccn1 [Example 211, 1-(3-chloro-2-fluorophenyl)-N-[4-(2-methylpyridin-4-yl)-3-(1H-tetrazol-5-yl)phenyl] cyclopropane-carboxamide]	7.98	7.72	7.64

Further lines, results first:

pIC50 [1, 3]	pIC50 [2]	pIC50 [1, 4]	Compound
7.45	7.44	–	COc1cc(-c2ccc(NC(=O)C3(c4ccc(C(F)(F)F)cc4F)CC3)cc2-c2nnn[nH]2)cnc1C(F)(F)F [Example 147, 1-[2-fluoro-4-(trifluoromethyl)phenyl]-N-{4-[5-methoxy-6-(trifluoromethyl)pyridin-3-yl]-3-(1H-tetrazol-5-yl)phenyl} cyclopropane-carboxamide]
8.20	7.93	7.84	CC(C)Oc1ccc(-c2ccc(NC(=O)C3(c4ccc(C(F)(F)F)cc4)CC3)cc2-c2nnn[nH]2)cn1 [Example 149, N-[4-(6-isopropoxy-pyridin-3-yl)-3-(1H-tetrazol-5-yl)phenyl]-1-[4-(trifluoromethyl)phenyl] cyclopropane-carboxamide]
8.44	7.73	7.58	COc1cncc(-c2ccc(NC(=O)C3(c4cccc(Cl)c4)CC3)cc2-c2nnn[nH]2)c1 [Example 153, 1-(3-chlorophenyl)-N-[4-(5-methoxypyridin-3-yl)-3-(1H-tetrazol-5-yl)phenyl] cyclopropane-carboxamide]
7.44	7.07	7.56	CCOc1cncc(-c2ccc(NC(=O)C3(c4ccc(C(F)(F)F)cc4)CC3)cc2-c2nnn[nH]2)c1 [Example 156, N-[4-(5-ethoxypyridin-3-yl)-3-(1H-tetrazol-5-yl)phenyl]-1-[4-(trifluoromethyl)phenyl] cyclopropane-carboxamide]
8.09	7.57	7.32	CCOc1ncc(-c2ccc(NC(=O)C3(c4cccc(Cl)c4)CC3)cc2-c2nnn[nH]2)cc1C [Example 160, 1-(3-chlorophenyl)-N-[4-(6-ethoxy-5-methylpyridin-3-yl)-3-(1H-tetrazol-5-yl)phenyl] cyclopropane-carboxamide]
6.37	6.55	6.45	O=C(Nc1ccc(-c2ccnc(C(F)(F)F)c2)c(-c2nnn[nH]2)c1)C1(c2cccc(Cl)c2)CC1 [Example 171, 1-(3-chlorophenyl)-N-{3-(1H-tetrazol-5-yl)-4-[2-(trifluoromethyl)pyridin-4-yl]phenyl} cyclopropane-carboxamide]
7.26	7.95	7.48	CCOc1ncc(-c2ccc(NC(=O)C3(c4cccc(Cl)c4F)CC3)cc2-c2nnn[nH]2)cn1 [Example 183, 1-(3-chloro-2-fluorophenyl)-N-[4-(2-ethoxypyrimidin-5-yl)-3-(1H-tetrazol-5-yl)phenyl] cyclopropane-carboxamide]
7.61	7.65	7.30	CCOc1ncc(-c2ccc(NC(=O)C3(c4cccc(Cl)c4)CC3)cc2-c2nnn[nH]2)cn1 [Example 184, 1-(3-chlorophenyl)-N-[4-(2-ethoxypyrimidin-5-yl)-3-(1H-tetrazol-5-yl)phenyl] cyclopropane-carboxamide]
6.72	6.47	6.60	CO[C@H]1CC[C@H](c2ccc(NC(=O)C3(c4cccc(Cl)c4)CC3)cc2-c2nnn[nH]2)CC1 [Example 190, 1-(3-chlorophenyl)-N-[4-(trans-4-methoxy-cyclohexyl)-3-(1H-tetrazol-5-yl)phenyl] cyclopropane-carboxamide]
7.47	7.54	–	O=C(Nc1ccc(-c2ccc(C(F)(F)F)nc2)c(-c2nnn[nH]2)c1)C1(c2ccc(Cl)cc2F)CC1 [Example 192, 1-(4-chloro-2-fluorophenyl)-N-{3-(1H-tetrazol-5-yl)-4-[6-(trifluoromethyl)pyridin-3-yl]phenyl} cyclopropane-carboxamide]
7.08	7.29	–	CC(F)(F)c1ccc(-c2ccc(NC(=O)C3(c4cccc(Cl)c4)CC3)cc2-c2nnn[nH]2)cn1 [Example 202, 1-(3-chlorophenyl)-N-{4-[6-(1,1-difluoroethyl)pyridin-3-yl]-3-(1H-tetrazol-5-yl)phenyl} cyclopropane-carboxamide]
7.04	7.44	–	O=C(Nc1ccc(-c2ccc(C(F)(F)F)nc2)c(-c2nnn[nH]2)c1)C1(c2ccc(Cl)cc2)CC1 [Example 203, 1-(4-chlorophenyl)-N-{3-(1H-tetrazol-5-yl)-4-[6-(trifluoromethyl)pyridin-3-yl]phenyl} cyclopropane-carboxamide]
7.65	7.95	7.80	Cc1ccc(-c2ccc(NC(=O)C3(c4cccc(Cl)c4)CC3)cc2-c2nnn[nH]2)cn1 [Example 208, 1(3-chlorophenyl)-N-[4-(6-methylpyridin-3-yl)-3-(1H-tetrazol-5-yl)phenyl] cyclopropane-carboxamide]
8.53	8.52	–	Cc1ccc(-c2ccc(NC(=O)C3(c4ccc(C(F)(F)F)cc4F)CC3)cc2-c2nnn[nH]2)cn1 [Example 209, 1-[2-fluoro-4-(trifluoromethyl)phenyl]-N-[4-(6-methylpyridin-3-yl)-3-(1H-tetrazol-5-yl)phenyl] cyclopropane-carboxamide]
